Measurements: patent US8008061B2, “Trophic conversion of obligate phototrophic algae through metabolic engineering” (Martek Biosciences Corporation, priority 2000, dated 2011)

Tests used:
Assay type in all cases: cell-based
Cyclotella cryptica = experiment: Antibiotic sensitivity in diatoms, growth on solid media; settings: C. cryptica; for lowest concentration of the antibiotic per ml required for cell death or the highest concentration tested: Table C, 100% I.O. media, 2 weeks of illumination
Experimental: (§1) The diatoms Phaeodactylum tricornutum, Cylindrotheca fusiformis, Cyclotella cryptica and Nitzschia alba were extensively tested for sensitivity to a series of antibiotics for which resistance genes are available, and the lowest concentrations which completely abrogate growth were determined for each antibiotic (Table C). […] These include antibiotics such as G418, Hygromycin, Kanamycin and Spectinomycin, which are routinely utilized for selection of other eukaryotic organisms.
(§2) The effective concentration range of the antibiotic in most cases was lowered by a factor of 10.
After 2 weeks of illumination the growth of the cells was assessed and the concentration of antibiotic required for cell death was determined. (Table D).

[1] = test system: Phaeodactylum tricornutum; experiment: as above; settings: P. tricornutum; for lowest concentration of the antibiotic per ml required for cell death or the highest concentration tested: Table C, 100% I.O. media, 2 weeks of illumination
Experimental: as §1, §2
(§3) Cells of each diatom species were plated on solid media at salinity equivalents of 25-100% I.O. media, with a gradient of antibiotic concentrations. After 2 weeks of illumination the growth of the cells was assessed and the concentration of antibiotic required for cell death was determined. (Table D).

Cylindrotheca fusiformis = experiment: as above; settings: C. fusiformis; for lowest concentration of the antibiotic per ml required for cell death or the highest concentration tested: Table C, 100% I.O. media, 2 weeks of illumination; for lowest concentration of antibiotic per ml required for cell death or the lowest concentration tested: media with reduced salinity, 25% of normal seawater
Experimental: as §1, §2, §3

[2] = test system: diatoms Phaeodactylum tricornutum, Cylindrotheca fusiformis, Cyclotella cryptica and Nitzschia alba; experiment: Antibiotic sensitivity, statements for the diatoms tested together; settings: for effect on growth of the diatoms: compared to effectiveness in other eukaryotic organisms; for cell death: 100% I.O. media, the diatoms tested
Experimental: as §1, §2, §3

Nitzschia alba = experiment: Antibiotic sensitivity in diatoms, growth on solid media; parameters: unit not given here; settings: N. alba; Table C; 100% I.O. media; 2 weeks of illumination
Experimental: as §1, §3

Compound | lowest concentration of the antibiotic per ml required for cell death or the highest concentration tested (Cyclotella cryptica) [mg per ml] | lowest concentration of the antibiotic per ml required for cell death or the highest concentration tested [1] [mg per ml] | lowest concentration of the antibiotic per ml required for cell death or the highest concentration tested (Cylindrotheca fusiformis) [mg per ml] | other results
O=C(N[C@H](CO)[C@H](O)c1ccc([N+](=O)[O-])cc1)C(Cl)Cl [Chloramphenicol] | 50 | 200 | 100 | –
CC[C@H]1OC(=O)[C@H](C)[C@@H](O[C@H]2C[C@@](C)(OC)[C@@H](O)[C@H](C)O2)[C@H](C)[C@@H](O[C@@H]2O[C@H](C)C[C@H](N(C)C)[C@H]2O)[C@](C)(O)C[C@@H](C)C(=O)[C@H](C)[C@@H](O)[C@]1(C)O [Erythromycin] | 50 | 100 | 100 | –
CN[C@@H]1[C@@H](O)[C@@H](O[C@@H]2[C@@H](O)[C@H](O[C@H]3O[C@H]([C@@H](C)O)[C@@H](O)[C@H](O)[C@H]3N)[C@@H](N)C[C@H]2N)OC[C@]1(C)O [G418] | – | – | >1 | effect on growth of the diatoms [2]: no significant effect on growth or were effective only at very high concentrations
NC[C@H]1O[C@H](O[C@H]2[C@H](O)[C@@H](O[C@H]3O[C@H](CO)[C@@H](O)[C@H](N)[C@H]3O)[C@H](N)C[C@@H]2N)[C@H](O)[C@@H](O)[C@@H]1O [Kanamycin] | >1 | >1 | >1 | –
COc1ccc(C[C@H](N)C(=O)N[C@H]2[C@@H](O)[C@H](n3cnc4c(N(C)C)ncnc43)O[C@@H]2CO)cc1 [Puromycin] | 100 | 200 | 100 | –
CN[C@@H]1[C@H](O)[C@H](NC)[C@H]2O[C@@]3(O)C(=O)C[C@@H](C)O[C@H]3O[C@@H]2[C@H]1O [Spectinomycin] | >1 | – | >1 | effect on growth of the diatoms [2]: no significant effect on growth or were effective only at very high concentrations
[H]/N=C(/N)N[C@H]1[C@H](O)[C@@H](O)[C@H](O[C@@H]2O[C@@H](C)[C@](O)(C=O)[C@H]2O[C@@H]2O[C@@H](CO)[C@H](O)[C@@H](O)[C@@H]2NC)[C@@H](N/C(N)=N\[H])[C@@H]1O [Streptomycin] | >1 | >1 | >1 | –
Cc1c(N)nc([C@H](CC(N)=O)NC[C@H](N)C(N)=O)nc1C(=O)N[C@H](C(=O)N[C@H](C)[C@@H](O)[C@H](C)C(=O)N[C@H](C(=O)NCCC1=N[C@@H](c2nc(C(=O)NCCCCN=C(N)N)cs2)CS1)[C@@H](C)O)[C@@H](O[C@@H]1O[C@@H](CO)[C@@H](O)[C@H](O)[C@@H]1O[C@H]1O[C@H](CO)[C@@H](O)[C@H](OC(N)=O)[C@@H]1O)c1cnc[nH]1 [Zeocin] | 250 | – | – | cell death [2]: resulted in cell death; lowest concentration of the antibiotic per ml required for cell death or the highest concentration tested (Nitzschia alba): >250
Bleomycin | – | – | >50 | –
Gentamicin | >1 | >1 | >1 | –
Neomycin | >1 | – | >1 | lowest concentration of the antibiotic per ml required for cell death or the highest concentration tested (Nitzschia alba): >1
Nourseothricin | >250 | – | >250 | lowest concentration of antibiotic per ml required for cell death or the lowest concentration tested (Cylindrotheca fusiformis): <10 mg (25%) mg per ml; lowest concentration of the antibiotic per ml required for cell death or the highest concentration tested (Nitzschia alba): >250
Phleomycin | 25 | – | – | lowest concentration of antibiotic per ml required for cell death or the lowest concentration tested (Cyclotella cryptica; media with reduced salinity, 10% of normal seawater): <5 mg (10%) mg per ml; cell death [2]: resulted in cell death; lowest concentration of antibiotic per ml required for cell death or the lowest concentration tested ([1]; media with reduced salinity, 25% of normal seawater): <5 mg (25%) mg per ml; lowest concentration of antibiotic per ml required for cell death or the lowest concentration tested (Cylindrotheca fusiformis): <5 mg (25%) mg per ml
